Results as given in ChEMBL document CHEMBL1147613, “A series of spirocyclic analogues as potent inhibitors of bacterial phenylalanyl-tRNA synthetases” (Bioorg Med Chem Lett, 2004).

The molecules below were run against T1, Phenylalanine--tRNA ligase, mitochondrial (Homo sapiens, UniProt O95363) (assay: Inhibitory activity against human phenylalanyl-tRNA synthetase was determined).
T1 sequence (O95363 whole entry): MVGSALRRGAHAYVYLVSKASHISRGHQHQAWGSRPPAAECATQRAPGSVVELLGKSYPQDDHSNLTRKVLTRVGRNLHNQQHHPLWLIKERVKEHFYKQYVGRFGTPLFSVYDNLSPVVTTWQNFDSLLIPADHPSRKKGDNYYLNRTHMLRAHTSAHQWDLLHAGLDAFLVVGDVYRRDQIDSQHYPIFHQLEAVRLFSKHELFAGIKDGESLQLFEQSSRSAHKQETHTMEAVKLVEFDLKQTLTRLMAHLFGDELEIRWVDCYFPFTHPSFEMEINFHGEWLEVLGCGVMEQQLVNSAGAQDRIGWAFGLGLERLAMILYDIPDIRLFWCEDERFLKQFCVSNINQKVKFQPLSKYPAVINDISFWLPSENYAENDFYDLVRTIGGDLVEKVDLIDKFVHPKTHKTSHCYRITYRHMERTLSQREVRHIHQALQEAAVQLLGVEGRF

IC50, > 100 µM:
O=C1[C@H]2[C@@H](C(=O)N1c1ccc(Cl)c(Cl)c1)C1(N[C@H]2c2ccccc2)C(=O)c2ccccc2C1=O, Cc1ccc(N2C(=O)[C@H]3[C@H](c4ccccc4)NC4(C(=O)c5ccccc5C4=O)[C@H]3C2=O)cc1Cl, Cc1ccc(N2C(=O)[C@H]3[C@@H](C2=O)C2(N[C@H]3c3ccccc3)C(=O)c3ccccc3C2=O)cc1Cl, COc1ccccc1N1C(=O)[C@@H]2C(c3ccccc3C)OC3(C(=O)c4ccccc4C3=O)[C@@H]2C1=O (some centres undefined), Cc1ccc(N2C(=O)[C@H]3C(c4ccccc4)OC4(C(=O)c5ccccc5C4=O)[C@H]3C2=O)cc1Cl (some centres undefined), COC(=O)C1N[C@@H](c2ccccc2)[C@H]2C(=O)N(c3ccc(Cl)c(Cl)c3)C(=O)[C@@H]12 (some centres undefined), O=C1C2C(c3ccccc3)OC3(C(=O)c4ccccc4C3=O)C2C(=O)N1c1ccc2c(c1)OCO2 (centres undefined), O=C1[C@H]2[C@H](c3ccccc3)NC3(Cc4ccccc4C3)[C@H]2C(=O)N1c1ccc(Cl)c(Cl)c1, O=C1[C@@H]2C(c3ccccc3)OC3(C(=O)c4ccccc4C3=O)[C@@H]2C(=O)N1c1ccc([N+](=O)[O-])cc1 (some centres undefined), Cc1ccc(N2C(=O)[C@@H]3C(c4ccccc4)OC4(C(=O)c5ccccc5C4=O)[C@@H]3C2=O)cc1Cl (some centres undefined), O=C1[C@H]2[C@H](c3ccccc3)NC3(C(=O)c4ccccc4C3=O)[C@H]2C(=O)N1c1ccc(Cl)c(Cl)c1, O=C1[C@@H]2C(c3ccc(Cl)cc3)OC3(C(=O)c4ccccc4C3=O)[C@@H]2C(=O)N1c1ccc(Cl)c(C(F)(F)F)c1 (some centres undefined), O=C(c1ccccc1)C1N[C@@H](c2ccccc2)[C@H]2C(=O)N(c3ccc(Cl)c(Cl)c3)C(=O)[C@@H]12 (some centres undefined), COc1ccc(N2C(=O)[C@@H]3C(c4ccccc4)OC4(C(=O)c5ccccc5C4=O)[C@@H]3C2=O)cc1 (some centres undefined), O=C1[C@@H]2C(c3ccccc3)OC3(C(=O)c4ccccc4C3=O)[C@@H]2C(=O)N1c1ccc(Cl)c(C(F)(F)F)c1 (some centres undefined), Cc1ccc(C2OC3(C(=O)c4ccccc4C3=O)[C@@H]3C(=O)N(c4ccc5c(c4)OCO5)C(=O)[C@H]23)cc1 (some centres undefined), COc1ccccc1N1C(=O)C2C(c3ccccc3)OC3(C(=O)c4ccccc4C3=O)C2C1=O (centres undefined), O=C1[C@H]2[C@@H](C(=O)N1c1ccc(Cl)c(Cl)c1)C1(Cc3ccccc3C1)N[C@H]2c1ccccc1, O=C(c1ccccc1)C1N[C@@H](c2ccccc2)[C@@H]2C(=O)N(c3ccc(Cl)c(Cl)c3)C(=O)[C@H]12 (some centres undefined)
